The text below walks through data of ChEMBL document CHEMBL5316287 (J Med Chem, 2023).

Data set [1] can be described thus: 1-Octanol/PBS partition coefficient, logD of the compound at pH 7.4 incubated for 30 mins by shake flask technique based HPLC-LC/MS analysis. Type of data set: physicochemical.
Data set [2] in a line: Metabolic stability in mouse liver microsomes assessed as intrinsic clearance at 1 uM. Type of data set: ADME, Microsome. (In general: Liver microsomes are a subcellular fraction often used to study metabolism.)
The nature of data set [3]: Metabolic stability in human liver microsomes assessed as intrinsic clearance at 1 uM. It is filed as ADME, Microsome.
The target of data set [4] is T1, Histone acetyltransferase p300 (Homo sapiens, UniProt Q09472). In words: Inhibition of EP300 in human LK2 cells assessed as reduction in intracellular H3K27 acetylation incubated for 3 hrs by chemiluminescence based ELISA. It is filed as cell-based. (In general: In an ELISA, binding on a coated surface is turned into a signal by an enzyme label.)
Data set [5] deals with T1, Histone acetyltransferase p300. Kind of data set: Inhibition of recombinant human full length EP300 assessed as inhibition of H4 peptide acetylation using biotinylated H4 peptide as substrate in presence of Acetyl-CoA incubated for 60 mins by TR-FRET assay.
A short description of data set [6]: Cmax in BALB/cAnNCrlCrlj mouse at 10 mg/kg,po. It is filed as ADME, organism-based. Also on record: dose 10 mg/kg, route po. The following applies: in vivo.
Data set [7] can be described thus: AUC in BALB/cAnNCrlCrlj mouse at 10 mg/kg,po. It is filed as ADME, organism-based. Also noted: dose 10 mg/kg, route po. The following applies: in vivo.
A short description of data set [8]: Half life in BALB/cAnNCrlCrlj mouse at 10 mg/kg,po. It is filed as ADME, organism-based. To be noted: in vivo.
Data set [9] in a line: Unbound AUC in BALB/cAnNCrlCrlj mouse at 10 mg/kg,po. It is filed as ADME, organism-based. To be noted: in vivo.
Data set [10] can be described thus: Clearance in BALB/cAnNCrlCrlj mouse at 1 mg/kg,iv administered as DMA/Tween80/saline (1:1:8 ratio) solution. It is filed as ADME, organism-based. To be noted: in vivo.
Data set [11] is described as follows: Oral bioavailability in BALB/cAnNCrlCrlj mouse at 10 mg/kg. The following applies: in vivo; for F: po, 10 mg/kg. It is filed as ADME, organism-based.
Data set [12] can be described thus: Volume of distribution at steady state in BALB/cAnNCrlCrlj mouse at 1 mg/kg,iv administered as DMA/Tween80/saline (1:1:8 ratio) solution. Type of data set: ADME, organism-based. The following applies: in vivo, read-out: Vdss.
Data set [13] in a line: Unbound clearance in BALB/cAnNCrlCrlj mouse at 1 mg/kg,iv administered as DMA/Tween80/saline (1:1:8 ratio) solution. Type of data set: ADME, organism-based. To be noted: in vivo.
A short description of data set [14]: Unbound clearance in BALB/cAnNCrlCrlj mouse at 1 mg/kg,iv administered as DMS0/10% SBE-7-betaCD (1:9 ratio) solution. Type of data set: ADME, organism-based. The following applies: in vivo.
Data set [15] can be described thus: Volume of distribution at steady state in BALB/cAnNCrlCrlj mouse at 1 mg/kg,iv administered as DMS0/10% SBE-7-betaCD (1:9 ratio) solution. It is filed as ADME, organism-based. To be noted: in vivo, read-out: Vdss.
Data set [16] can be described thus: Volume of distribution at steady state in BALB/cAnNCrlCrlj mouse at 2 mg/kg,iv administered as DMA/Tween80/saline (1:1:8 ratio) solution. It is filed as ADME, organism-based. The following applies: in vivo, read-out: Vdss.
A short description of data set [17]: Unbound clearance in BALB/cAnNCrlCrlj mouse at 2 mg/kg,iv administered as DMA/Tween80/saline (1:1:8 ratio) solution. Type of data set: ADME, organism-based. To be noted: in vivo.
The mark [18] stands for this setting: BALB/cAnNCrlCrlj, read-out: AUC.

T1 sequence (Q09472 whole entry): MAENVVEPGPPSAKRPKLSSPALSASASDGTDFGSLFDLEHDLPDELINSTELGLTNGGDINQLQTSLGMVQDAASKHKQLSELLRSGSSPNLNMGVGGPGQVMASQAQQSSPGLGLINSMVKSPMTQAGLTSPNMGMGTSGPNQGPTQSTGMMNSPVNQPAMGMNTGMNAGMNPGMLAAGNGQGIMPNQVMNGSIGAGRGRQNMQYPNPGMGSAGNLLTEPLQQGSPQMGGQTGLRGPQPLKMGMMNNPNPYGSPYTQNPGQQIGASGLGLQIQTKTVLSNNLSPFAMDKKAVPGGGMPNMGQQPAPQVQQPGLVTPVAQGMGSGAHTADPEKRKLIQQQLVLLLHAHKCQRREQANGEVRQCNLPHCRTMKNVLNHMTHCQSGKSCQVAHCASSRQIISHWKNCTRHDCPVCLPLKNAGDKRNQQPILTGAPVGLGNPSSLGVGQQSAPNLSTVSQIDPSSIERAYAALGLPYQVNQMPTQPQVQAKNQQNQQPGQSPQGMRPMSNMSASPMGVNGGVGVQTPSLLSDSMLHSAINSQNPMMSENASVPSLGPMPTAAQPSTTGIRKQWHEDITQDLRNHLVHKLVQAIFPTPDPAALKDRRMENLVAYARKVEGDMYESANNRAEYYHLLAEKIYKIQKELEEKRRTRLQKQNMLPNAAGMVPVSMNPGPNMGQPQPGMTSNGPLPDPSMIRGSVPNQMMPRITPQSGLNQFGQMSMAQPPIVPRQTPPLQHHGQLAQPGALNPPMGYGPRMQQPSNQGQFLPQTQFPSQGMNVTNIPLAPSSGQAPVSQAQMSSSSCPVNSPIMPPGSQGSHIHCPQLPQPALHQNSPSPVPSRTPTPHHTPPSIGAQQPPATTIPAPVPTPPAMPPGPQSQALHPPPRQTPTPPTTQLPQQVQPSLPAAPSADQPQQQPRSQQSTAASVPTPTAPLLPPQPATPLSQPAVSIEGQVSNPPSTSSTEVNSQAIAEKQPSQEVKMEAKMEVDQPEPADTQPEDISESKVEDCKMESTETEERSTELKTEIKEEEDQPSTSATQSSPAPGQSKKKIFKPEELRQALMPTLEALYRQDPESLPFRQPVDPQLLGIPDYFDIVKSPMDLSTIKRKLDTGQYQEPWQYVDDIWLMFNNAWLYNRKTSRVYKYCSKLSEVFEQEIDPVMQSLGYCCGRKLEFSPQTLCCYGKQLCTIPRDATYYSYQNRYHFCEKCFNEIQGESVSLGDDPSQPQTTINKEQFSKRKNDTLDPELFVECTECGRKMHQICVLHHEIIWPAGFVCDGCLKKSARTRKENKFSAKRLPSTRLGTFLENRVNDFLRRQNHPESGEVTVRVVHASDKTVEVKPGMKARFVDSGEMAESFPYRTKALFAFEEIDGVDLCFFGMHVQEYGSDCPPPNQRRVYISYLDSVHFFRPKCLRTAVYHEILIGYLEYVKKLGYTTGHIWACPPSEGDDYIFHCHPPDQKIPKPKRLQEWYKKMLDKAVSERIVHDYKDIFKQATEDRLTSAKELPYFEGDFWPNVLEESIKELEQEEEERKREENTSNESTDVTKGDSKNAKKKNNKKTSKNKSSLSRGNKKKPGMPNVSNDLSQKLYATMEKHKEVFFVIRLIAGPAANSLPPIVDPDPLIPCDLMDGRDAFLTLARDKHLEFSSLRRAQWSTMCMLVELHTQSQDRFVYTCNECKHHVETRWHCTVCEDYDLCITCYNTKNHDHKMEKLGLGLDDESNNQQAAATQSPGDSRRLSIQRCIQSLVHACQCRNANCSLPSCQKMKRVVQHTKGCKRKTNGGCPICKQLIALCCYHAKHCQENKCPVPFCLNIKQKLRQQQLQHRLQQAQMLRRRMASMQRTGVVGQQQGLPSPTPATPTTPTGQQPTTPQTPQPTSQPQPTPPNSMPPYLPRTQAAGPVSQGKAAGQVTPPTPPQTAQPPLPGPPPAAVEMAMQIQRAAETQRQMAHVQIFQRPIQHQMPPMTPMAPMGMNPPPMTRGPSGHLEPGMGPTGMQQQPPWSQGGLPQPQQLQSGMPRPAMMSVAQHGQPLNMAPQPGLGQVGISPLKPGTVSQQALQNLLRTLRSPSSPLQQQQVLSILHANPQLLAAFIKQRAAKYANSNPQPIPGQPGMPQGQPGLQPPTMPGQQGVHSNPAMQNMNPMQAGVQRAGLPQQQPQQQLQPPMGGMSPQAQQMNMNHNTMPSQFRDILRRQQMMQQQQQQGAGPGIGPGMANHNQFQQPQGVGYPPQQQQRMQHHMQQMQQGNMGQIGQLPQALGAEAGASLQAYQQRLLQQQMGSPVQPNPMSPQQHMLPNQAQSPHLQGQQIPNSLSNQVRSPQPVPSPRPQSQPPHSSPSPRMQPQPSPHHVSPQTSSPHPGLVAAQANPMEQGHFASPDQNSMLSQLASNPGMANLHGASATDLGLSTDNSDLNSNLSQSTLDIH

A word on the logD: it is lipophilicity at a set pH, counting ionised and neutral species. High values mean higher lipophilicity, low ones lower lipophilicity. Broadly, the IC50 is the concentration at which inhibition is half-maximal. Take `COc1ccc(C2(C(=O)N3C[C@H](F)C[C@@H]3C(=O)Nc3ccc4[nH]ncc4n3)CCOCC2)cc1`: in data set [1], the logD at 0.5 h is 1.6. Also, in data set [2], the “intrinsic clearance (CLint)” value was 50 µL/min/mg. For the same molecule, in data set [3], the intrinsic clearance is 10 µL/min/mg. For the same molecule, the concentration for half-maximal inhibition (IC50) in data set [4] was determined as 101 nM.

Molecule `COc1ccc(C2(C(=O)N3C[C@H](F)C[C@@H]3C(=O)Nc3ccc4[nH]ncc4n3)CC(C)(C)C2)cc1` registered a pH-dependent lipophilicity (logD) at 0.5 h in data set [1] of 3.1. For the same molecule, the “intrinsic clearance (CLint)” value in data set [2] was determined as 240 µL/min/mg. The intrinsic clearance in data set [3] came to 100 µL/min/mg. Further, the IC50 in [4] was 53 nM.

`O=C(Nc1ccc2[nH]ncc2n1)[C@H]1C[C@@H](F)CN1C(=O)C1(c2ccc(C(=O)C(F)(F)F)cc2)CCCCC1` returned a logD at 0.5 h in [1] of 3.4. Further, in data set [2], the “intrinsic clearance (CLint)” value was 380 µL/min/mg. For the same molecule, the intrinsic clearance in data set [3] turned out to be 150 µL/min/mg. The IC50 in data set [4] is 21 nM.

On to `COc1ccc(C2(C(=O)N3CCC[C@@H]3C(=O)Nc3ccc4[nH]ncc4n3)CCCC2)cc1`, for which the results for the concentration for half-maximal inhibition (IC50) in [5] and in data set [4] were 24 nM and 52 nM, respectively.

Usually Cmax stands for the maximum level reached in the sampled fluid or tissue. The AUC is the area under the concentration-time curve, a measure of exposure. In general, half-life refers to how long it takes for the measured level to halve. A low value points to rapid decline. Turning to `CS(=O)(=O)c1ccc(C2(C(=O)N3C[C@H](F)C[C@@H]3C(=O)Nc3ccc4[nH]ncc4n3)CCC(F)(F)CC2)cc1`, the Cmax in data set [6] stood at 90 nM. This molecule displayed a pH-dependent lipophilicity (logD) at 0.5 h in [1] of 1.6. Also, the 50% inhibitory concentration (IC50) in [5] turned out to be 55 nM; in [4] it was 95 nM. Moreover, the AUC in data set [7] (setting [18]) was determined as 0.23 µM·h. Further, the half-life in data set [8] was 1.5 h.

In data set [1], `COc1ccc(C2(C(=O)N3C[C@H](F)C[C@@H]3C(=O)Nc3ccc4[nH]ncc4n3)CCCCC2)cn1` showed a log distribution coefficient (logD) at 0.5 h of 2.3. For the same molecule, in data set [2], the “intrinsic clearance (CLint)” value is 160 µL/min/mg. Further, the intrinsic clearance in data set [3] turned out to be 110 µL/min/mg. Further, the IC50 in [4] was 15 nM.

Turning to `COc1ccc(C2(C(=O)N3C[C@H](F)C[C@@H]3C(=O)Nc3ccc4[nH]ncc4n3)CC(F)(F)C2)cc1`, the peak concentration (Cmax) in [6] worked out at 1610 nM. The molecule also yielded a logD at 0.5 h in data set [1] of 2.1. For the same molecule, the “intrinsic clearance (CLint)” value in data set [2] came to 120 µL/min/mg. Moreover, the intrinsic clearance in [3] is 40 µL/min/mg. Besides, the half-maximal inhibitory concentration (IC50) in [4] came to 20 nM. Besides, the fAUC in data set [9] amounted to 0.268 µM·h. The exposure (AUC) in data set [7] (setting [18]) was found to be 2.29 µM·h. In [8], this molecule gave a half-life of 2.1 h.

By clearance is commonly meant the volume of plasma or blood freed of the substance per unit of time. Broadly, the bioavailability is dose-corrected exposure relative to a reference, in per cent. A higher bioavailability goes with much systemic uptake. For `COc1ccc(C2(C(=O)N3C[C@H](F)C[C@@H]3C(=O)Nc3ccc4[nH]ncc4n3)CCCCC2)cc1F`, the clearance in [10] was 6.3 mL/min/kg. The same molecule returned a Cmax in data set [6] of 12700 nM. Moreover, the logD at 0.5 h in data set [1] was 3.1. Moreover, the “intrinsic clearance (CLint)” value in data set [2] came to 400 µL/min/mg. Moreover, the intrinsic clearance in data set [3] came to 230 µL/min/mg. The molecule further yielded a bioavailability in data set [11] (BALB/cAnNCrlCrlj) of 62%. Further, the Vd in data set [12] was 0.15 L/kg. In addition, the IC50 in data set [4] turned out to be 16 nM. In data set [9], this molecule displayed a fAUC of 1.39 µM·h. In addition, the CL free in data set [13] was 76 mL/min/kg. The area under the curve (AUC) in [7] (setting [18]) came out at 16.8 µM·h. The half-life in [8] was 1.2 h.

In data set [6], `COc1ccc(C2(C(=O)N3C[C@H](F)C[C@@H]3C(=O)Nc3ccc4[nH]ncc4n3)CCCCC2)cc1` showed a Cmax of 10800 nM. Also, in data set [14], the CL free came to 133 mL/min/kg. The molecule also displayed a logD at 0.5 h in [1] of 3.1. In addition, the “intrinsic clearance (CLint)” value in [2] worked out at 770 µL/min/mg. The intrinsic clearance in [3] was 310 µL/min/mg. Further, the F in data set [11] amounted to 2.2%. The Vd in data set [15] amounted to 0.29 L/kg. In data set [9], this molecule showed a fAUC of 0.6 µM·h. In data set [7], this molecule registered an area under the curve (AUC) of 15 µM·h. The molecule further showed a half-life in data set [8] of 1.4 h.

Take `COc1ccc(C2(C(=O)N3CCC[C@@H]3C(=O)Nc3ccc4[nH]ccc4c3)CCCC2)cc1`: the half-inhibitory concentration (IC50) in data set [4] was found to be 709 nM.

For `COc1ccc(C2(C(=O)N3CCC[C@@H]3C(=O)Nc3ccc4[nH]ncc4c3)CCCC2)cc1`, the IC50 in data set [4] came to 916 nM.

In [1], `COc1c(F)cc(C2(C(=O)N3C[C@H](F)C[C@@H]3C(=O)Nc3ccc4[nH]ncc4n3)CCC(F)(F)CC2)cc1F` came in with a logD at 0.5 h of 3.2. Also, in [3], the intrinsic clearance came out at 60 µL/min/mg. Moreover, the IC50 in data set [4] was determined as 142 nM.

Turning to `COc1ccc(C2(C(=O)N3C[C@H](O)C[C@@H]3C(=O)Nc3ccc4[nH]ncc4n3)CCCCC2)cc1`, the values for the 50% inhibitory concentration (IC50) in data set [5] and in data set [4] were 50 nM and 106 nM, respectively.

In [6], `COc1ccc(C2(C(=O)N3CCC[C@@H]3C(=O)Nc3cccc4[nH]ncc34)CCCC2)cc1` had a peak concentration (Cmax) of 320 nM. Besides, in [9], the fAUC is 0.029 µM·h. The AUC in data set [7] (setting [18]) is 0.42 µM·h. In [8], the half-life is 0.6 h.

`O=C(Nc1ccc2[nH]ncc2n1)[C@H]1C[C@@H](F)CN1C(=O)C1(c2ccc(O)cc2)CCCCC1` returned a Cmax in data set [6] of 340 nM. In data set [1], this molecule registered a logD at 0.5 h of 2.7. Besides, the intrinsic clearance in data set [3] amounted to 140 µL/min/mg. Further, the IC50 in data set [4] turned out to be 13 nM. Besides, in [7] (setting [18]), the AUC is 0.87 µM·h. Also, the half-life in data set [8] is 2.8 h.

`COc1ccc(C2(C(=O)N3CCC[C@@H]3C(=O)Nc3ccc4cn[nH]c4c3)CCCC2)cc1`: the IC50 in data set [5] turned out to be 500 nM; in [4], 2790 nM.

Consider `COc1ccc(C2(C(=O)N3CCC[C@@H]3C(=O)Nc3cccc4[nH]ccc34)CCCC2)cc1`, for which the concentration for half-maximal inhibition (IC50) in data set [4] amounted to 304 nM.

Take `COc1ccc(C(C)(C)C(=O)N2C[C@H](F)C[C@@H]2C(=O)Nc2ccc3[nH]ncc3n2)cc1`: the logD at 0.5 h in data set [1] came out at 1.9. Also, the “intrinsic clearance (CLint)” value in data set [2] amounted to 380 µL/min/mg. Further, in [3], the intrinsic clearance was 10 µL/min/mg. Besides, the IC50 in [4] was determined as 77 nM.

As for `COc1ccc(C2(C(=O)N3C[C@H](F)C[C@@H]3C(=O)Nc3ccc4[nH]ncc4n3)CCC(F)(F)CC2)cc1F`, in [1], the logD at 0.5 h is 3. For the same molecule, in data set [3], the intrinsic clearance amounted to 40 µL/min/mg. The half-inhibitory concentration (IC50) in data set [5] is 36 nM; in [4] it was 57 nM.

Regarding `COc1ccc(C2(C(=O)N3CS(=O)(=O)C[C@@H]3C(=O)Nc3ccc4[nH]ncc4n3)CCCCC2)cc1`, the IC50 in data set [4] came to 27 nM.

`COc1ccc(C2(C(=O)N3CCOCC(Cc4cccc5[nH]ncc45)C3)CCCC2)cc1` (stereo not given) gave a peak concentration (Cmax) in data set [6] of 80 nM. The molecule further displayed a F in data set [11] of 31%. The Vd in data set [16] is 1.76 L/kg. For the same molecule, the fAUC in data set [9] was found to be 0.006 µM·h. For the same molecule, the CL free in data set [17] worked out at 1740 mL/min/kg. In data set [7], this molecule returned an AUC of 0.1 µM·h. In [8], this molecule gave a half-life of 2 h.
